MIC and IC50 data for 24 compounds are collected here from US20210246115A1 (Bioimics AB, priority 2017, published 2021).

For assay [1], the system named is Staphylococcus aureus (ATCC25923). Description: MIC, broth microdilution (CLSI), Staphylococcus aureus ATCC25923. Conditions: Staphylococcus aureus, ATCC25923, read-out: S. aureus ATCC 25923 MIC. A general note: Broth dilution looks for growth in wells or tubes with falling amounts of substance.
The test system of assay [2] is Escherichia coli (ATCC25922). Description: MIC, broth microdilution (CLSI), Escherichia coli. The following applies: Escherichia coli, ATCC25922, read-out: E. coli ATCC 25922 MIC, Table XIII.
Assay [3] concerns E. coli RNase P RNA, M1 RNA. Description: Inhibition of bacterial RNase P activity, IC50 determination (cleavage of pATSerUG by M1 RNA). Conditions: NI: No inhibition. The assay is classed as biochemical.

In brackets after ≈: the same amount, converted by molar mass. Where a name gives a salt, the structure may show the parent alone.

For the compound `Cc1cccc(C(CC(=O)NC2CCC(N)CC2)c2cn(CC3CCCCC3)c3ccc(-c4ccnn4C)cc23)c1.Cl` (stereo not drawn) [Compound 183, N-(4-aminocyclohexyl)-3-(1-(cyclohexylmethyl)-5-(1-methyl-1H-pyrazol-5-yl)-1H-indol-3-yl)-3-(m-tolyl)propanamide hydrochloride salt], the minimum inhibitory concentration (MIC) in assay [1] came to 9 µg/mL; in assay [2], 151 µg/mL. Further, the IC50 in assay [3] was 17 µM.

On to `Cc1cccc(C(CC(=O)NC2CCC(N)CC2)c2cn(CC3CCCCC3)c3ccc(-c4ccncc4)cc23)c1` (stereo not drawn) [Compound 188, N-(4-aminocyclohexyl)-3-(1-(cyclohexylmethyl)-5-(pyridin-4-yl)-1H-indol-3-yl)-3-(m-tolyl) propanamide hydrochloride salt], for which the MIC in assay [1] was 5 µg/mL; in assay [2] it was greater than 512 µg/mL. This compound returned an IC50 in assay [3] of 5.8 µM.

In the case of `Cc1cccc(C(CC(=O)N[C@H]2CCCC[C@@H]2N)c2cn(CC3CCCCC3)c3ccccc23)c1.Cl` (stereo partly drawn) [Compound 189, N-((1S,2S)-2-aminocyclohexyl)-3-(1-(cyclohexylmethyl)-1H-indol-3-yl)-3-(m-tolyl)propanamide hydrochloride salt], the figures for the MIC in assay [1] and in assay [2] were 16 µg/mL and greater than 512 µg/mL, respectively. The compound further had an IC50 in assay [3] of 16 µM.

Consider `Cl.N[C@H]1CC[C@H](NC(=O)Cc2cn(CC3CCCCC3)c3ccc(Br)cc23)CC1` [Compound 190, N-((1R,4R)-4-aminocyclohexyl)-2-(5-bromo-1-(cyclohexylmethyl)-1H-indol-3-yl)acetamide hydrochloride salt], for which the MIC was 15 µg/mL in assay [1] and 31 µg/mL in assay [2]. For the same compound, the midpoint of inhibition in assay [3], the IC50, lay at 10 µM.

In the case of `N[C@H]1CC[C@H](NCCc2cn(CC3CCCCC3)c3ccc(Br)cc23)CC1` [Compound 197, (1R,4R)-N1-(2-(5-bromo-1-(cyclohexylmethyl)-1H-indol-3-yl)ethyl) cyclohexane-1,4-diamine hydrochloride salt], the results for the minimum inhibitory concentration (MIC) in assay [1] and in assay [2] were 4 µg/mL and 8 µg/mL, respectively. In assay [3], this compound came in with a concentration for half-maximal inhibition (IC50) of 31 µM.

Take `CC(C)c1cccc(C(CC(=O)N[C@H]2CC[C@H](N)CC2)c2cn(CC3CCCCC3)c3ccccc23)c1.Cl` (stereo partly drawn) [Compound 198, N-((1R,4R)-4-aminocyclohexyl)-3-(1-(cyclohexylmethyl)-1H-indol-3-yl)-3-(3-isopropylphenyl) propanamide hydrochloride salt]: the results for the minimum inhibitory concentration (MIC) in assay [1] and in assay [2] were 17 µg/mL and greater than 512 µg/mL, respectively. The compound also showed a concentration for half-maximal inhibition (IC50) in assay [3] of 12.7 µM.

As to `Cl.NC1CCC(C(=O)N2CCC(c3cn(CC4CCCCC4)c4ccccc34)CC2)CC1` (stereo not drawn) [Compound 200, (4-aminocyclohexyl) (4-(1-(cyclohexylmethyl)-1H-indol-3-yl)piperidin-1-yl)methanone hydrochloride salt], the MIC is 15 µg/mL in assay [1] and 59 µg/mL in assay [2]. Also, in assay [3], the IC50 amounted to 5.9 µM.

Regarding `Cc1cccc(C(CC(=O)NC2CCC(NC(=N)N)CC2)c2cn(CC3CCCCC3)c3ccccc23)c1` (stereo not drawn) [Compound 201, 3-(1-(cyclohexylmethyl)-1H-indol-3-yl)-N-(4-guanidinocyclohexyl)-3-(m-tolyl) propanamide hydrochloride salt], the MIC in assay [1] was 2 µg/mL; in assay [2], 75 µg/mL. In assay [3], this compound yielded an IC50 of 15.4 µM.

Turning to `Cc1cccc(C(CC(=O)NCC2CCC(CN)CC2)c2cn(CC3CCCCC3)c3ccc(Br)cc23)c1.Cl` (stereo not drawn) [Compound 203, N-((4-(aminomethyl)cyclohexyl)methyl)-3-(5-bromo-1-(cyclohexylmethyl)-1H-indol-3-yl)-3-(m-tolyl)propanamide hydrochloride salt], the minimal inhibitory concentration (MIC) in assay [1] was 5 µg/mL; in assay [2], greater than 512 µg/mL. This compound also registered an IC50 in assay [3] of 115 µM.

With `Cl.N[C@H]1CC[C@H](NCCC(c2cn(CC3CCCCC3)c3ccccc23)C2CCCCC2)CC1` (stereo partly drawn) [Compound 204, (1rR4R)-N1-(3-cyclohexyl-3-(1-(cyclohexylmethyl)-1H-indol-3-yl)propyl) cyclohexane-1,4-diamine hydrochloride salt], the MIC in assay [1] is 2 µg/mL; in assay [2], 4 µg/mL. This compound came in with an IC50 in assay [3] of 50 µM.

`Cc1cccc(C(CC(=O)N[C@H]2CC[C@H](N)CC2)c2cn(CC3CCCCC3)c3ccc(-c4ccccc4Cl)cc23)c1.Cl` (stereo partly drawn) [Compound 205, N-((1R,4R)-4-aminocyclohexyl)-3-(5-(2-chlorophenyl)-1-(cyclohexylmethyl)-1H-indol-3-yl)-3-(m-tolyl)propanamide hydrochloride salt]: the values for the MIC in assay [1] and in assay [2] were 158 µg/mL and greater than 512 µg/mL, respectively. In assay [3], this compound yielded an IC50 of 3.2 µM.

Consider `Cc1cccc(C(CC(=O)N[C@H]2CC[C@H](CN)CC2)c2cn(CC3CCCCC3)c3ccc(Br)cc23)c1.Cl` (stereo partly drawn) [Compound 206, N-((1R,4R)-4-(aminomethyl)cyclohexyl)-3-(5-bromo-1-(cyclohexylmethyl)-1H-indol-3-yl)-3-(m-tolyl)propanamide hydrochloride salt], for which the values for the MIC in assay [1] and in assay [2] were 19 µg/mL and greater than 512 µg/mL, respectively. The concentration for half-maximal inhibition (IC50) in assay [3] was determined as 23 µM.

Consider `Cc1cccc(-c2ccc3c(c2)c(CCCN[C@H]2CC[C@H](N)CC2)cn3CC2CCCCC2)c1` [Compound 207, (1R,4R)-N1-(3-(1-(cyclohexylmethyl)-5-(m-tolyl)-1H-indol-3-yl)propyl)cyclohexane-1,4-diamine hydrochloride salt], for which the MIC in assay [1] and in assay [2] was 4 µg/mL throughout. In assay [3], the 50% inhibitory concentration (IC50) turned out to be 17 µM.

Turning to `Cc1cccc(-c2ccc3c(c2)c(CC(=O)N[C@H]2CC[C@H](N)CC2)cn3CC2CCCCC2)c1.Cl` [Compound 209, N-((1R,4R)-4-aminocyclohexyl)-2-(1-(cyclohexylmethyl)-5-(m-tolyl)-1H-indol-3-yl)acetamide hydrochloride salt], the MIC is 4 µg/mL in assay [1] and 63 µg/mL in assay [2]. Besides, the IC50 in assay [3] was 5.4 µM.

As for `N[C@H]1CC[C@H](NCCCc2cn(CC3CCCCC3)c3ccc(Br)cc23)CC1` [Compound 211, (1R,4R)-N1-(3-(5-bromo-1-(cyclohexylmethyl)-1H-indol-3-yl)propyl)cyclohexane-1,4-diamine hydrochloride salt], the MIC in assay [1] came out at 4 µg/mL; in assay [2], 8 µg/mL. In assay [3], this compound had an IC50 of 20 µM.

Turning to `Cl.N[C@H]1CC[C@H](NC(=O)CCc2cn(CC3CCCCC3)c3ccc(-c4cccc(OC(F)(F)F)c4)cc23)CC1` [Compound 213, N-((1R,4R)-4-aminocyclohexyl)-3-(1-(cyclohexylmethyl)-5-(3-(trifluoromethoxy)phenyl)-1H-indol-3-yl) propanamide hydrochloride salt], the values for the minimal inhibitory concentration (MIC) in assay [1] and in assay [2] were 18 µg/mL and 296 µg/mL, respectively. The compound further showed an IC50 in assay [3] of 3 µM.

`Cc1cccc(C(CC(=O)NCC2CCC(N)CC2)c2cn(CC3CCCCC3)c3ccc(Br)cc23)c1.Cl` [Compound 214, N-(((1R,4R)-4-aminocyclohexyl)methyl)-3-(5-bromo-1-(cyclohexylmethyl)-1H-indol-3-yl)-3-(m-tolyl)propanamide hydrochloride salt]: the results for the MIC in assay [1] and in assay [2] were 10 µg/mL and greater than 512 µg/mL, respectively. The half-maximal inhibitory concentration (IC50) in assay [3] worked out at 13 µM.

As to `N[C@H]1CC[C@H](CN2CCC(c3cn(CC4CCCCC4)c4ccccc34)CC2)CC1` [Compound 217, (1R,4R)-4-((4-(1-(cyclohexylmethyl)-1H-indol-3-yl)piperidin-1-yl)methyl)cyclohexan-1-amine hydrochloride salt], the MIC in assay [1] was found to be 8 µg/mL; in assay [2], 31 µg/mL. Also, in assay [3], half-maximal inhibition (IC50) required 133 µM.

As to `Cc1cccc(C(CCN[C@H]2CC[C@H](O)CC2)c2cn(CC3CCCCC3)c3ccccc23)c1.Cl` (stereo partly drawn) [Compound 218, (1R,4R)-4-((3-(1-(cyclohexylmethyl)-1H-indol-3-yl)-3-(m-tolyl)propyl)amino) cyclohexan-1-ol hydrochloride salt], the MIC is 8 µg/mL in assay [1] and greater than 512 µg/mL in assay [2]. Moreover, half-maximal inhibition in assay [3] (IC50) required 45 µM.

With `Cc1cccc(C(CC(=O)NC2CCC(N)CC2)c2cn(CC3CCCCC3)c3ccc(-c4ccccc4C)cc23)c1.Cl` [Compound 221, N-((1S,4S)-4-aminocyclohexyl)-3-(1 - (cyclohexylmethyl)-5-(o-tolyl)-1H-indol-3-yl)-3-(m-tolyl)propanamide hydrochloride salt], the MIC in assay [1] is 38 µg/mL; in assay [2], greater than 512 µg/mL. Moreover, in assay [3], the IC50 is 3.4 µM.

On to `Cc1cccc(C(CC(=O)NC2CCC(N)CC2)c2cn(CC3CCCCC3)c3cc(Br)ccc23)c1` [Compound 222, N-((1S,4S)-4-aminocyclohexyl)-3-(6-bromo-1-(cyclohexylmethyl)-1H-indol-3-yl)-3-(m-tolyl)propanamide hydrochloride salt], for which the MIC in assay [1] and in assay [2] was 5 µg/mL throughout. For the same compound, the IC50 in assay [3] (hydrochloride salt) came out at 5.7 µM.

As to `Cc1cccc(C(CC(=O)NC2CCC(N)CC2)c2cn(CC34CC5CC(CC(C5)C3)C4)c3ccccc23)c1.Cl` [Compound 223, 3-(1-(((1S,3S)-adamantan-1-yl)methyl)-1H-indol-3-yl)-N-((1s,4s)-4-aminocyclohexyl)-3-(m-tolyl)propanamide hydrochloride salt], the MIC in assay [1] is 2 µg/mL; in assay [2], greater than 512 µg/mL. In addition, the IC50 in assay [3] came to 8 µM.

`Cc1cccc(C(CC(=O)NC2CCC(N)CC2)c2cn(CC3CCCCC3)c3ccc(-c4ccccc4Cl)cc23)c1.Cl` [Compound 224, N-((1S,4S)-4-aminocyclohexyl)-3-(5-(2-chlorophenyl)-1-(cyclohexylmethyl)-1H-indol-3-yl)-3-(m-tolyl)propanamide hydrochloride salt]: the MIC in assay [1] worked out at 5 µg/mL; in assay [2] it was 82 µg/mL. In assay [3], this compound had a 50% inhibitory concentration (IC50) of 2.9 µM.

As to `CCOP(=O)(NC1CCC(NC(=O)CC(c2cccc(C)c2)c2cn(CC3CCCCC3)c3ccccc23)CC1)OCC` (stereo not drawn) [Compound 226, diethyl ((1s,4s)-4-(3-(1-(cyclohexylmethyl)-1H-indol-3-yl)-3-(m-tolyl)propanamido)cyclohexyl) phosphoramidate], the MIC was 311 µg/mL (≈ 512 µM) in assay [1] and greater than 512 µg/mL in assay [2]. This compound registered a concentration for half-maximal inhibition (IC50) in assay [3] of 28.5 µM.

In general, MIC refers to the smallest concentration in the dilution series that meets the test's criterion for growth inhibition. A word on the IC50: it is the concentration needed to halve the response being measured.
